Like-named read-outs stand apart in the source and are kept apart here.
Experiments:
[1] = tested on: glycerol-induced renal failure model; test: renal-protecting effect (glycerol-induced renal failure model); format: in vivo; settings: male Wistar rats; for suppression of increases of the serum creatinine and of urine-nitrogen: 0.01 - 10 mg/kg i.p., 24 hours after 50% glycerol s.c. (p < 0.05); for pathological examination of removed kidneys: state of kidneys: i.p., left kidney removed 24 hours after 50% glycerol s.c.
Procedure: A renal failure is a state wherein the renal function is lowered and the homeostasis of a body fluid can be no more maintained. It is known that an acute renal failure characteristic of uriniferous tubule disorder is caused by subcutaneous or intramuscular injection of glycerol to rats [Can. J. Physiol.
Male Wistar rats were kept deprived or water for 18 hours, and served for the test. A test compound was intraperitoneally administered to the rats (dosage: 1 mℓ/kg) and the rats were anesthetized with ether and 50% glycerol was subcutaneously administered (dosage: 0.8mℓ/100g) to the rats, pinching the dorsal skin. Twenty four hours after the administration of glycerol, the rats were anesthetized with ether and 5 mℓ of blood were collected from the abdominal aorta. The collected blood was allowed to stand for 30 minutes or longer and then centrifuged at 3,000 rpm for 10 minutes, and the amounts of the serum creatinine and urine-nitrogen (UN) contained in the serum were determined by auto analyzer (Olympus AU510) or measured by a creatinine test Wako (Jaffé method) and UN Test Wako (diacetylmonooxime direct method). Both are manufactured by Wako Pure Chemicals Co.
On the other hand, the left kidneys of the blood-sampled rats were removed and placed in formalin-filled vial bottles, and used as samples for the pathological examination.

[2] = tested on: zig-zag strips of the trachea; test: effects on passive Schultz-Dale reaction (antigen-induced contraction of sensitized trachea strips); parameters: species or system guinea pigs; settings: Cavia porcellus, read-out: Passive S-D Reaction IC₅₀
Procedure: After 24 hours, the guinea pigs were stunned and exsanguinated, and then trachea were removed. The zig-zag strips of the trachea were prepared by the method of Emmerson, et al. [J. Pharm. […] The strips were suspended in Krebs-Henseleit solution at 37°C […] Antigen (EWA) was then introduced in the solution (final concentration; 1μg/ml), and the contraction was measured by […] After the contraction reached stable plateau, the compounds were cumulatively added in order to get concentration-relaxation curves. […]

[3] = tested on: death induced by Platelet-Activating Factor (PAF); test: effect of inhibiting death induced by Platelet-Activating Factor (PAF); format: in vivo; settings: Mus musculus; oral, dd strain mice, 40 µg/kg PAF i.v. 1 hour after administration; highest dose 100 mg/kg; read-out: MED (mg/kg) for Inhibiting Death Induced by PAF
Procedure: A test compound (100 mg/kg) was orally administered to dd strain mice (male animals, 28 to 32g) and 40 µg/kg of PAF (manufactured by Avanti Polar Lipids Co.) was administered via tail veins 1 hour after the administration according to the method of Carlson et al. [Agents and Actions, 21, 379 (1987)]. The mortality rates of compound-treated groups were compared with those of matched control groups, assessed during the same experimental session, by the Fisher's exact probability test. The cases wherein the level of significance (p value) is 0.05 or less are considered to be effective with respect to the inhibition. The above procedure was repeated, using the test compound in a decreasingly small quantity so as to find out the Minimum Effective Dosage (MED) wherein […] be observed between the test and control groups.

[4] = tested on: Wistar rats; test: diuretic effect; format: in vivo; settings: 25 mg/kg oral, urine collected for 6 hours
Procedure: Wistar rats (male: 150 - 300 g) were starved for 18 hours prior to the administration of the test compounds. […] Urine was collected for 6 hours after the administration. Urine volume was measured and the electrolytes (Na+ and K+) in the urine were determined with a flame photome[…], Hitachi Ltd., Japan). All parameters are expressed as relative values of control.

[5] = concentration to produce 50% relaxation of EWA (1µg/mℓ)-contracted trachea strips of passively sensitized guinea pigs

Which “suppression of increases of the serum creatinine and of urine-nitrogen” value (from here on “suppression of increases … of urine-nitrogen”) [1] does the source give for CCCn1c(=O)c2[nH]c(C(C)Cc3ccncc3)nc2n(CCC)c1=O (centres unmarked) [Compound 7, 8-[1-methyl-2-(4-pyridyl)ethyl]-1,3-dipropylxanthine] here?
The value was “significantly suppressed”.

What about the “pathological examination of removed kidneys: state of kidneys” value (“pathological examination” for short) [1] of the same compound?
The value was “significantly improved”.

What about the IC50 [2, 5] of the same compound?
Its IC50 is 2.7 µM.

What about the minimal effective dose [3] of the same compound?
Its minimal effective dose is > 100 mg/kg.

With CCCn1c(=O)[nH]c(=O)c2[nH]c(C34CC5CC(CC3C5)C4)nc21 [Compound 25, 8-(Noradamantan-3-yl)-3-propylxanthine] as the compound, how does the “suppression of increases … of urine-nitrogen” value [1] read?
Its value is “significantly suppressed”.

And the “pathological examination” value [1]?
Its value is “significantly improved”.

What about the IC50 [2, 5] of the same compound?
The IC50 was 17.3 µM.

CCCn1c(=O)c2[nH]c(C(C)Cc3csc(C)n3)nc2n(CCC)c1=O (centres unmarked) [Compound 8, 8-[1-Methyl-2-(2-methylthiazol-4-yl)ethyl]-1,3-dipropylxanthine] was tested. Which “Increase in K⁺ excretion (%)” value ([4]; relative to control) did it give?
The value was 22%.

What about the “Increase in Na⁺excretion (%)” value ([4]; relative to control) of the same compound?
Its value is 138%.

What about the “Increase in Urine (%)” value ([4]; relative to control) of the same compound?
The value was 82%.

And the “Na⁺/K⁺” value ([4]; relative value of control (control 1.00))?
Its value is 1.95.

And the “suppression of increases … of urine-nitrogen” value [1]?
Its value is “significantly suppressed”.

What about the “pathological examination” value [1] of the same compound?
The value was “significantly improved”.

And the IC50 [2, 5]?
The IC50 was 0.88 µM.

And the minimal effective dose [3]?
The minimal effective dose was 100 mg/kg.

Which results are given for Cn1c(=O)c2[nH]cnc2n(C)c1=O [Theophylline, 1,3-dimethylxanthine, reference compound]?
IC50 [2]: 23 µM; minimal effective dose [3]: 100 mg/kg

Reference: patent EP0415456A2, “Xanthine compounds” (priority 1989, dated 1991)
